This is an account of results in patent publication US9938269B2, “Inhibitor compounds of phosphodiesterase type 10A” (ABBVIE INC., priority 2011, dated 2018).

Data set [1] can be described thus: Determination of the microsomal half-life, human liver microsomes. As to conditions: for microsomal CLint at 0.5 μM: human, liver microsomes, pH 7.4. In general terms: Liver microsomes are vesicles of endoplasmic reticulum, rich in cytochrome P450 enzymes.
The target of a further data set is T1, PDE10A (human) (Homo sapiens, UniProt Q9Y233).
T1 construct: purchased BPS Bioscience
T1 sequence (Q9Y233 whole entry): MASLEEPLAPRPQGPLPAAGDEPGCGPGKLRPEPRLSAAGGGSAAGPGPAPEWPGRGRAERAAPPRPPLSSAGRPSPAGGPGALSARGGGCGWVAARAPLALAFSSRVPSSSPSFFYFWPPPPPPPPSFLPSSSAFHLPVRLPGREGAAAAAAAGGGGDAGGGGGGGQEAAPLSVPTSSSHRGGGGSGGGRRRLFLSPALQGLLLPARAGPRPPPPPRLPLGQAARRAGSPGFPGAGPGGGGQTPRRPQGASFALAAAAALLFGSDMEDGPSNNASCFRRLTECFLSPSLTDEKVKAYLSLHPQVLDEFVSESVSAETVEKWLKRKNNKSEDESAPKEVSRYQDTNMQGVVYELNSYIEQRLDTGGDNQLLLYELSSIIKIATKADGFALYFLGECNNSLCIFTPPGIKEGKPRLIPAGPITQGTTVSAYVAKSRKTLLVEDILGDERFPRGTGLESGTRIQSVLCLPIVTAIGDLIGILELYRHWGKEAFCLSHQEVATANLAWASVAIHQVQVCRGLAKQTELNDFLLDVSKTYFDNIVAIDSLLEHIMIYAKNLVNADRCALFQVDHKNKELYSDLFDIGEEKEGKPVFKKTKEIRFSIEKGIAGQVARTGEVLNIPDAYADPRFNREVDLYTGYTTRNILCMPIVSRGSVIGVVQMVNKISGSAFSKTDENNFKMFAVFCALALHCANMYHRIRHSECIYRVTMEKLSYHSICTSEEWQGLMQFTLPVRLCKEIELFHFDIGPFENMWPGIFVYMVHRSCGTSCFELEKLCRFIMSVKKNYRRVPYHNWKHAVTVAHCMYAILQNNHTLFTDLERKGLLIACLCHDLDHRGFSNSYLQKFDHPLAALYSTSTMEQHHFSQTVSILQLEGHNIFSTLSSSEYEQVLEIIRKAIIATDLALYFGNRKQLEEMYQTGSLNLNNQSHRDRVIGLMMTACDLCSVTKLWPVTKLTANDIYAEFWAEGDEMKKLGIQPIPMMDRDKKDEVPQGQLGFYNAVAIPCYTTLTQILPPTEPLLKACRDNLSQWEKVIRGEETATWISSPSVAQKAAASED
Briefly: Measurement of PDE activity (HTRF cAMP kit), human PDE10A. The format is biochemical. The note with it: PDE enzymatic reaction, substrate 20 nM for PDE10, 60 minutes at 29 C. The procedure, abridged: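 Recombinant human PDE10A (10–250 pM range across PDEs) with 20 nM cAMP substrate in 20 mM Tris-HCl pH 7.5, 10 mM MgCl2, 0.1% BSA, compound pre-mixed with enzyme. Ran 60 min at 29 °C. Remaining cAMP read by HTRF, converted to % of uninhibited activity, and IC50 fitted.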
Background: TR-FRET usually uses a lanthanide donor and a delayed reading to cut background.

The nature of data set [2]: Determination of the microsomal half-life, rat liver microsomes. The note with it: rat, liver microsomes, pH 7.4.
Description: The test substances were incubated in a concentration of 0.5 μM as follows:
0.5 μM test substance are preincubated together with liver microsomes from different species (from rat, human or other species) (0.25 mg of microsomal protein/10 in 0.05 M potassium phosphate buffer of pH 7.4 in microtiter plates at 37° C. for 5 min. The reaction is started by adding NADPH (1 mg/mL). After 0, 5, 10, 15, 20 and 30 min., 50 μl aliquots are removed, and the reaction is immediately stopped and cooled with the same volume of acetonitrile. The samples are frozen until analyzed. The remaining concentration of undegraded test substance is determined by MSMS. The half-life (T½) is determined from the gradient of the signal of test substance/unit time plot, it being possible to calculate the half-life of the test substance, assuming first order kinetics, from the decrease in the concentration of the compound with time. The microsomal clearance (mCl) is calculated from mCl=ln 2/T½/(content of microsomal protein in mg/ml)×1000 [ml/min/mg]

Where a name gives a salt, the structure may show the parent alone.

As usually defined, the microsomal CLint is a measure of how fast metabolising enzymes remove a compound, apart from limits set by blood flow. A high value points to rapid turnover. As a reminder, the IC50 is the midpoint of a concentration-inhibition curve. Higher therefore signals a need for much substance.

As for `O=C1Cc2ccc(-c3cccc4c3C(=O)N(CCc3ccc5ccccc5n3)C4)cc2N1` [Example 96, 6-[3-Oxo-2-(2-quinolin-2-yl-ethyl)-2,3-dihydro-1H-isoindol-4-yl]-1,3-dihydro-indol-2-one], the microsomal CLint at 0.5 μM in data set [1] and in data set [2] was 100 to 220 µL/min/mg each time. The IC50 at PDE10A (human) is under 100 nM.

Turning to `O=C1c2cccc(-c3ccnnc3)c2CN1CCc1ccc2ccccc2n1` [Example 353, 4-Pyridazin-4-yl-2-(2-quinolin-2-yl-ethyl)-2,3-dihydro-isoindol-1-one], the microsomal CLint at 0.5 μM in data set [1] is under 100 µL/min/mg; in data set [2], 100 to 220 µL/min/mg. The IC50 at PDE10A (human) lay within 100 to 200 nM.

As to `Cn1nccc1-c1ccnc2c1C(=O)N(CCc1nc3ccccc3s1)C2` [compound 432, 6-[2-(1,3-Benzothiazol-2-yl)ethyl]-4-(2-methylpyrazol-3-yl)-7H-pyrrolo[3,4-b]pyridin-5-one trifluoroacetate], the microsomal CLint at 0.5 μM in data set [1] and in data set [2] was under 100 µL/min/mg each time. Also, at PDE10A (human), the IC50 was in the range of 100 to 200 nM.

Take `CCc1ccc(CCN2Cc3nccc(-c4ccncc4)c3C2=O)nc1` [compound 501, 6-[2-(5-Ethyl-2-pyridyl)ethyl]-4-(4-pyridyl)-7H-pyrrolo[3,4-b]pyridin-5-one trifluoroacetate]: the microsomal CLint at 0.5 μM is under 100 µL/min/mg in data set [1] and 100 to 220 µL/min/mg in data set [2]. This molecule also came in with an IC50 on PDE10A (human) of 100 to 200 nM.

As for `Cc1cccc(CCN2Cc3nccc(N4CCOCC4)c3C2=O)n1` [compound 466, 6-[2-(6-Methyl-2-pyridyl)ethyl]-4-morpholino-7H-pyrrolo[3,4-b]pyridin-5-one], the microsomal CLint at 0.5 μM in data set [1] was under 100 µL/min/mg; in data set [2] it was over 220 µL/min/mg. Also, the IC50 against PDE10A (human) fell in the range of 100 to 200 nM.

As to `COc1ccnc2c1C(=O)N(CCc1ccc3ccccc3n1)C2` [compound 528, 4-Methoxy-6-(2-quinolin-2-yl-ethyl)-6,7-dihydro-pyrrolo[3,4-b]pyridin-5-one], the microsomal CLint at 0.5 μM in data set [1] and in data set [2] was under 100 µL/min/mg in each case. At PDE10A (human), this molecule had an IC50 of under 100 nM.

On to `CN(C)CCCn1c(CCN2Cc3cccc(-c4ccncc4)c3C2=O)nc2ccccc21` [Example 294, 2-{2-[1-(3-Dimethylamino-propyl)-1H-benzoimidazol-2-yl]-ethyl}-7-pyridin-4-yl-2,3-dihydro-isoindol-1-one trifluoroacetate], for which the microsomal CLint at 0.5 μM was 100 to 220 µL/min/mg in data set [1] and under 100 µL/min/mg in data set [2]. The same molecule yielded an IC50 on PDE10A (human) of 200 to 500 nM.

In the case of `O=C1c2nccc(-c3cccnc3)c2CN1CCc1ccc2ccccc2n1` [compound 463, 4-Pyridin-3-yl-6-(2-quinolin-2-yl-ethyl)-5,6-dihydro-pyrrolo[3,4-b]pyridin-7-one trifluoroacetate], the microsomal CLint at 0.5 μM in data set [1] and in data set [2] was under 100 µL/min/mg throughout. Also, on PDE10A (human), the IC50 lay in the range of 100 to 200 nM.

Turning to `O=C1c2c(-c3ccncc3)ccnc2CN1CCc1cn2cc(F)ccc2n1` [compound 494, 6-[2-(6-Fluoroimidazo[1,2-a]pyridin-2-yl)ethyl]-4-(4-pyridyl)-7H-pyrrolo[3,4-b]pyridin-5-one trifluoroacetate], the microsomal CLint at 0.5 μM in data set [1] and in data set [2] was under 100 µL/min/mg throughout. On PDE10A (human), the IC50 is under 100 nM.

Regarding `Cc1ncc(-c2ccnc3c2C(=O)N(CCc2ccc4ccccc4n2)C3)s1` [Example 326, 4-(2-Methyl-thiazol-5-yl)-6-(2-quinolin-2-yl-ethyl)-6,7-dihydro-pyrrolo[3,4-b]pyridin-5-one], the microsomal CLint at 0.5 μM in data set [1] and in data set [2] was 100 to 220 µL/min/mg throughout. The molecule further came in with an IC50 at PDE10A (human) of under 100 nM.

Turning to `NCc1ccc(-c2cccc3c2C(=O)N(CCc2ccc4ccccc4n2)C3)cc1` [Example 193, 7-(4-Aminomethyl-phenyl)-2-(2-quinolin-2-yl-ethyl)-2,3-dihydro-isoindol-1-one], the microsomal CLint at 0.5 μM in data set [1] and in data set [2] was under 100 µL/min/mg in each case. The same molecule yielded an IC50 against PDE10A (human) of 100 to 200 nM.

Take `O=C1c2c(cccc2-c2cncnc2)CN1CCc1ccc2ccccc2n1` [Example 58, 7-Pyrimidin-5-yl-2-(2-quinolin-2-yl-ethyl)-2,3-dihydro-isoindol-1-one]: the microsomal CLint at 0.5 μM in data set [1] is over 220 µL/min/mg; in data set [2] it was under 100 µL/min/mg. In addition, on PDE10A (human), the IC50 is under 100 nM.

Take `COc1ccc(-c2cccc3c2C(=O)N(CCc2ccc4ccccc4n2)C3)cn1` [Example 54, 7-(6-Methoxy-pyridin-3-yl)-2-(2-quinolin-2-yl-ethyl)-2,3-dihydro-isoindol-1-one]: the microsomal CLint at 0.5 μM in data set [1] and in data set [2] was 100 to 220 µL/min/mg in each case. On PDE10A (human), this molecule came in with an IC50 of under 100 nM.

Regarding `O=C1c2c(OCF)ccc(-c3cncnc3)c2C(=O)N1CCc1cn2ccccc2n1` [compound 545, 4-(Fluoromethoxy)-2-(2-imidazo[1,2-a]pyridin-2-ylethyl)-7-pyrimidin-5-yl-isoindoline-1,3-dione], the microsomal CLint at 0.5 μM in data set [1] and in data set [2] was under 100 µL/min/mg each time. For the same molecule, on PDE10A (human), the IC50 is under 100 nM.

`O=C1c2c(cccc2-c2ccc3[nH]c(=O)[nH]c3c2)CN1CCc1ccc2ccccc2n1` [Example 9, 5-[3-oxo-2-(2-quinolin-2-yl-ethyl)-2,3-dihydro-1H-isoindol-4-yl]-1,3-dihydro-benzoimidazol-2-one trifluoroacetate]: the microsomal CLint at 0.5 μM is under 100 µL/min/mg in data set [1] and 100 to 220 µL/min/mg in data set [2]. This molecule also came in with an IC50 against PDE10A (human) of under 100 nM.

For `O=C(O)C(F)(F)F.O=C1c2c(-c3ccnc(F)c3)ccnc2CN1CCc1nc2ccccc2s1` [compound 421, 6-[2-(1,3-Benzothiazol-2-yl)ethyl]-4-(2-fluoro-4-pyridyl)-7H-pyrrolo[3,4-b]pyridin-5-one trifluoroacetate], the “Human mCl (mikrosomal clearance)” value in data set [1] (human liver microsomes, 0.5 μM test substance, 0.25 mg microsomal protein, pH 7.4, 37° C., NADPH) is recorded as “◯”. In addition, the IC50 on PDE10A (human) is under 100 nM. The molecule also displayed a microsomal CLint at 0.5 μM in data set [2] of under 100 µL/min/mg.

For `O=C1c2c(cccc2-c2ccncc2)CN1CCc1cn2ccccc2n1` [Example 20, 2-(2-Imidazo[1,2-a]pyridin-2-yl-ethyl)-7-pyridin-4-yl-2,3-dihydro-isoindol-1-one], the intrinsic metabolic clearance (microsomal CLint) at 0.5 μM in data set [1] and in data set [2] was under 100 µL/min/mg in each case. This molecule displayed an IC50 on PDE10A (human) of under 100 nM.

As to `O=C1c2c(cccc2N2CCS(=O)(=O)CC2)CN1CCc1ccc2ccccc2n1` [Example 104, 7-(1,1-Dioxo-1-thiomorpholin-4-yl)-2-(2-quinolin-2-yl-ethyl)-2,3-dihydro-isoindol-1-one], the microsomal CLint at 0.5 μM in data set [1] and in data set [2] was under 100 µL/min/mg in each case. On PDE10A (human), this molecule had an IC50 of under 100 nM.

Consider `O=C1c2c(cccc2-c2ccc3nc[nH]c3c2)CN1CCc1cn2ccccc2n1` [Example 244, 7-(3H-Benzoimidazol-5-yl)-2-(2-imidazol[1,2-a]pyridin-2-yl-ethyl)-2,3-dihydro-isoindol-1-one], for which the microsomal CLint at 0.5 μM in data set [1] and in data set [2] was under 100 µL/min/mg throughout. The IC50 against PDE10A (human) is 100 to 200 nM.

Take `O=C1c2cccc(-c3cscn3)c2CN1CCc1cn2ccccc2n1` [compound 537, 2-(2-Imidazo[1,2-a]pyridin-2-ylethyl)-4-thiazol-4-yl-isoindolin-1-one]: the microsomal CLint at 0.5 μM was under 100 µL/min/mg in data set [1] and 100 to 220 µL/min/mg in data set [2]. Further, the IC50 against PDE10A (human) is under 100 nM.
